Experimental data reported in patent US11524082B2, “FBSA-based therapeutic and radioimaging conjugates targeting carbonic anhydrase positive cancers” (priority 2017, dated 2022).

What was measured:
HT29 xenografts = test system: HT29 xenografts; design: species or system mice; details: in vivo
Experimental: (§1) Whole-Body Imaging and Biodistribution of Radiolabeled 17 in Mouse Xenograft Models
(§2) SKRC52, HT29, or A549 cells (˜3×10^6 cells per mouse) were injected subcutaneously into the shoulders of female athymic nu/nu mice. Growth of the tumors was measured in two perpendicular directions and the volumes of the tumors were calculated as 0.5×L×W^2 (L=longest axis and W=axis perpendicular to L in millimeters). Once tumors reached a minimum of 500 mm^3 in volume, animals were injected with radiolabeled Conjugate 17 (250 μCi) in PBS (100 μL, pH 7.4) via tail vein injection. To obtain whole-body images, mice were anesthetized with isoflurane and images were acquired with a Kodak Imaging Station (In-Vivo FX, Eastman Kodak Company) in combination with CCD camera and Kodak molecular imaging software (version 4.0) with the kidneys shielded. Radioimages were acquired using the following parameters: radio isotope illumination source, 3 min acquisition time, f-stop=4, focal plane=5, FOV=160, binning=8. White light images were acquired using the following parameters: white light transillumination illumination source, 0.175 s acquisition time, f-stop=16, focal plane=5, FOV=160, and no binning. After acquiring the whole-body imaging, the mice were sacrificed with CO2 asphyxiation and, following necropsy, the tissues were placed into preweighed γ-counter tubes. The radioactivity of the tissues and a fraction of the injected dose was measured in a γ-counter (Packard, Packard Instrument Company). Count per minute (CPM) values were corrected for decay times, and the results were calculated as percent of the injected dose per gram (% ID/g) of wet tissue.

SKRC52 xenografts = test system: SKRC52 xenografts; design: species or system mice; details: mouse, in vivo
Experimental: as §1, §2

A549 xenografts = test system: A549 xenografts; design: species or system mice; details: in vivo
Experimental: as §1, §2
250 μCi of radiolabeled Conjugate 17 was injected into the tail vein of mice bearing xenografts derived from the A549 cell line. At various time points shown in Table 3, the tissues were removed from the mice (n=1 per time point), weighed, and the radioactivity was quantified on a gamma counter. Because copper-64 emits gamma radiation at 511 keV in 36% abundance, it is possible to use gamma detection methods.

CAIX [1] = molecular target: T1, CAIX (Homo sapiens, UniProt Q16790); test: Binding affinity of CAIX FITC conjugates by flow cytometry in A549 cells; design: expressed in transfected cells; details: FIG. 7
Experimental: (§3) General Procedure for Binding Affinity Determination of CAIX FITC Conjugates
(§4) HEK293 transfected with CAIX, SKRC52, HT29, or A549 cells (0.25×10^6) were placed into 1.5 ml centrifuge tubes with 0.3 mL of fresh DMEM medium containing increasing concentrations of CAIX FITC conjugates in the presence or absence of 100-fold excess CAIX inhibitor (Compound 3, 3-((2-(cyclooctylamino)-3,5,6-trifluoro-4-sulfamoylphenyl)sulfonyl)propanoic acid. After incubating for 1 h at 25° C., cells were rinsed twice with 1 mL of medium. The cells were transferred into a 96-well plate and the mean florescence intensity (MFI) was read using flow cytometry (BD Accuri C6, BD Biosciences). Apparent KD was calculated by plotting MFI versus the concentration of the FITC conjugates using GraphPad Prism 4. For hypoxia experiments, cells were incubated under an atmosphere containing 1% oxygen, 5% carbon dioxide, and 94% nitrogen for 24-48 hours in a hypoxia chamber.

CAIX [2] = molecular target: T1, CAIX; test: Binding affinity of CAIX FITC conjugates by flow cytometry in HEK293 transfected with CAIX; design: expressed in transfected cells; host or cells: HEK293
Excerpt: as §3

CAIX [3] = molecular target: T1, CAIX; test: Binding affinity of CAIX FITC conjugates by flow cytometry in HT-29 cells; design: expressed in transfected cells; details: FIG. 4
Experimental: as §3, §4

CAIX [4] = molecular target: T1, CAIX; test: Binding affinity of CAIX FITC conjugates by flow cytometry in SKRC52 cells; design: endogenous in cells; host or cells: SKRC52
Excerpt: as §3

SKRC52 cells = test: Fluorescent confocal microscopy of FBSA-PEG2-FITC conjugate in SKRC52 cells; type: cell-based, Human; details: 25 nM conjugate, 1 hour at 37° C.; competition with 100-fold excess Compound 3; FIG. 1
Experimental: Fluorescent Microscopy of FBSA-PEG2-FITC Conjugate, Conjugate 5.
Metastatic Human Renal Cell Carcinoma (SKRC52) cells (10^5) were seeded into chambered coverglass plates and allowed to grow to confluence over 24 hours (hr). Spent medium was replaced with 0.5 mL of fresh medium containing 10% fetal bovine serum albumin and 25 nM concentration of the FITC conjugate, Conjugate 5, alone or the dye conjugate plus 100-fold excess CAIX inhibitor (Compound 3, 3-((2-(cyclooctylamino)-3,5,6-trifluoro-4-sulfamoylphenyl)sulfonyl)propanoic acid). After incubation for 1 hour at 37° C., cells were rinsed twice with 1 mL of media to remove unbound fluorescence and 0.5 ml of fresh incubation medium was added to the wells. Images were acquired using a confocal microscopy (FV 1000, Olympus).

CAIX [5] = molecular target: T1, CAIX; test: In vitro binding affinity of radiolabeled Conjugate 17 in SKRC52 cells (gamma counting); design: endogenous in cells; host or cells: SKRC52
Experimental: (§5) In Vitro Binding Affinity of Radiolabeled Conjugate 17
(§6) SKRC52, HT29, A549 cells (˜0.25×10^6) were seeded in a 24-well plate and allowed to grow overnight. Fresh medium containing increasing concentrations of radiolabeled Conjugate 17, as prepared in Example 17, in the presence or absence of 100-fold excess FBSA competition compound was added. All concentrations were examined in duplicate or triplicate. After incubating for 1 h at 25° C., cells were washed with PBS (3×0.5 mL). To each well was added 0.5 M NaOH. After 10 min, 0.45 mL of the NaOH was removed and the radioactivity was measured with a γ-counter (Packard, Packard Instrument Company). The apparent binding affinity was calculated by plotting the bound radioactivity versus the concentration of the radiolabeled conjugate with GraphPad Prism 4.

CAIX [6] = molecular target: T1, CAIX; test: In vitro binding affinity of radiolabeled Conjugate 17 in A549 cells (gamma counting); design: expressed in transfected cells; details: 64Cu-radiolabeled, 1 h at 25° C., FIG. 10
Experimental: as §5, §6

Which results are given for `NS(=O)(=O)c1c(F)c(F)c(S(=O)(=O)CCC(=O)NCCOCCOCCC(=O)NCCNC(=O)CCC(C(=O)O)N2CCN(CC(=O)O)CCN(CC(=O)O)CC2)c(NC2CCCCCCC2)c1F` (stereo not shown) (64Cu complex, metal not drawn) [radiolabeled Conjugate 17]?
tumor uptake in whole-body image, targeted versus competition mouse (HT29 xenografts): also demonstrated in mice bearing HT29 xenografts; tumor to tissue background ratios (HT29 xenografts; mouse): not very good; radioactivity at the tumor, with competition control (SKRC52 xenografts): the radioactivity at the tumor was receptor mediated; uptake of removed tumors, targeted versus competition (SKRC52 xenografts): higher tumor uptake in the targeted mouse versus the competition mice; radiation count at the tumor site, competition mouse versus non-competition mouse (A549 xenografts): much lower radiation count at the tumor site; tumor uptake in whole-body image, targeted versus competition mouse (A549 xenografts): much higher tumor uptake than that of the competition mouse; time of the highest tumor-to-tissue ratio (A549 xenografts; mouse): nine

Which results are given for `NS(=O)(=O)c1c(F)c(F)c(S(=O)(=O)CCC(=O)NCCOCCOCCC(=O)NC(CSC2CC(=O)N(c3ccc(-c4c5ccc(=O)cc-5oc5cc(O)ccc45)c(C(=O)O)c3)C2=O)C(=O)O)c(NC2CCCCCCC2)c1F` (stereo not shown) [Conjugate 5, 2-(((1-(3-carboxy-4-(6-hydroxy-3-oxo-3H-xanthen-9-yl)phenyl)-2,5-dioxopyrrolidin-3-yl)thio)methyl)-16-((2-(cyclooctylamino)-3,5,6-trifluoro-4-sulfamoylphenyl)sulfonyl)-4,14-dioxo-7,10-dioxa-3,13-diazahexadecanoic acid]?
Kd (CAIX [1]): 6.04 nM; Kd (CAIX [2]; HEK293-CA9 cells, FIG. 2 / FIG. 5, apparent KD from MFI, 1 h at 25° C., read-out: KD): 17.9 nM; binding with competition by unconjugated inhibitor (CAIX [3]; 100-fold excess unconjugated inhibitor (Compound 3)): bound the cells and competed in the presence of 100-fold excess unconjugated inhibitor; Kd (CAIX [3]): 4.55 nM; Kd (CAIX [4]; SKRC52 cells under hypoxia (1% oxygen, 24-48 hours), FIG. 6, read-out: KD, Hypoxia SKRC52): 4.72 nM; Kd (CAIX [4]; SKRC52 cells without hypoxia, FIG. 6, read-out: binding affinity, Normoxia SKRC52): 4.57 nM; Kd (CAIX [4]; SKRC52 cells, FIG. 3, apparent KD from MFI, 1 h at 25° C., read-out: KD): 1.28 nM; cell binding by confocal microscopy, alone and with excess CAIX inhibitor (SKRC52 cells): bound the cells and were competed in the presence of excess unconjugated inhibitor

`N[C@@H](CNC(=O)CCOCCOCCOCCOCCNC(=O)CCS(=O)(=O)c1c(F)c(F)c(S(N)(=O)=O)c(F)c1NC1CCCCCCC1)C(=O)N[C@@H](CC(=O)O)C(=O)N[C@@H](CSC1CC(=O)N(c2ccc(-c3c4ccc(=O)cc-4oc4cc(O)ccc34)c(C(=O)O)c2)C1=O)C(=O)O` (stereo partly drawn) [Conjugate 7, 5-(3-(((2R,5S,8S)-8-amino-2-carboxy-5-(carboxymethyl)-29-((2-(cyclooctylamino)-3,5,6-trifluoro-4-sulfamoylphenyl)sulfonyl)-4,7,11,27-tetraoxo-14,17,20,23-tetraoxa-3,6,10,26-tetraazanonacosyl)thio)-2,5-dioxopyrrolidin-1-yl)-2-(6-hydroxy-3-oxo-3H-xanthen-9-yl)benzoic acid] was tested. Which Kd (CAIX [2]) did it give?
The Kd was 55.2 nM.

And the “binding with competition by unconjugated inhibitor” value (CAIX [2]; HEK293-CA9 cells, 100-fold excess unconjugated inhibitor (Compound 3), FIG. 5)?
The value was “bound the cells and competed in the presence of 100-fold excess unconjugated inhibitor”.

And the Kd (CAIX [4])?
The Kd was 4.57 nM.

What does the source list for `NS(=O)(=O)c1c(F)c(F)c(S(=O)(=O)CCC(=O)NCCOCCOCCC(=O)NCCNC(=O)CCC(C(=O)O)N2CCN(CC(=O)O)CCN(CC(=O)O)CC2)c(NC2CCCCCCC2)c1F` (stereo not shown) [radiolabeled Conjugate 17]?
bound radioactivity in competition controls (CAIX [5]; SKRC52 and A549 cells, 100-fold excess of unlabeled FBSA-COOH): significantly less bound radioactivity; concentration reaching saturation of binding (CAIX [5]; SKRC52 and A549 cells, FIGS. 9 and 10): approximately 75 nM; Kd (CAIX [5]; SKRC52 cells, 64Cu-radiolabeled, 1 h at 25° C., FIG. 9): 5.87 nM; Kd (CAIX [6]): 6.04 nM
